Experimental data as given in patent US20130344157A1, “ENHANCEMENT OF THE EFFICACY OF THERAPEUTIC PROTEINS” (North-West University, priority 2007, published 2013).

Columns and labels:
blood glucose levels [1] = assay: Decrease in % blood glucose levels after intra-ileal administration; format: in vivo, Male Sprague Dawley rats; conditions: 50 IU/kg
blood glucose levels [2] = assay: % blood glucose decrease after intranasal administration; format: in vivo, Male Sprague Dawley rats; conditions: for Tmax of % blood glucose decrease: sampling times in minutes
Method: The cannulation of the carotis communis artery for the collection of blood samples was also performed as described in Example 1 as was the determination of plasma levels and blood glucose levels.

[3] = rat, in vivo
Method: Male Sprague Dawley rats with a body mass of between 240 and 336 g were used as experimental in vivo model to investigate the absorption and efficacy enhancing capabilities of the current invention.
In this study, insulin was directly administered into the stomach, ileum or duodenum of the animals. […] Six animals were used for each group in the study. Rats were fasted 18 hours prior to drug administration but water was supplied ad libitum. […] The conditions under which the rats were bred and kept were 21° C. with a relative humidity of 55%, a light intensity of between 350-400 lux one meter above floor level with light cycles of 12 hours light and 12 dark and 18 air changes per minute.
Subcutaneous injection of insulin in one group was used to validate assaying procedures. The normal rat glucose and insulin profile was determined in a group that received only saline; this group acted as biological reference.
Cannulation of the artery carotis communis, ensured that sufficient blood volumes from the same rat at different time intervals could be obtained for analysis. Anaesthesia was induced by halothane and lasted for ±3 hours. All surgical procedures necessary for the cannulation of the carotis communis were carried out while the rats were under anaesthesia. […]

blood glucose levels [4] = assay: Decrease in % blood glucose levels after intra-gastric administration; format: in vivo, Male Sprague Dawley rats; conditions: 50 IU/kg

## Insulin in saline: Control: recombinant human insulin (Sigma-Aldrich) in saline solution without any enhancing agent
Blood glucose levels [1]
  AUC, decrease in the % of blood glucose levels: 13.81
  Tmax, decrease in the % of blood glucose levels: 10 min
Blood glucose levels [2]; 8 IU/kg
  AUC of % blood glucose decrease: 46
  Cmax of % blood glucose decrease: 10.03%
  Tmax of % blood glucose decrease: 15
Blood glucose levels [2]; 8 IU/kg, time 0 min
  % blood glucose decrease: 0%
Blood glucose levels [2]; 8 IU/kg, time 5 min
  % blood glucose decrease: −1.18%
Blood glucose levels [2]; 8 IU/kg, time 10 min
  % blood glucose decrease: 5.58%
Blood glucose levels [2]; 8 IU/kg, time 15 min
  % blood glucose decrease: 10.033%
Blood glucose levels [2]; 8 IU/kg, time 30 min
  % blood glucose decrease: 5.27%
Blood glucose levels [2]; 8 IU/kg, time 60 min
  % blood glucose decrease: 3.47%
Blood glucose levels [2]; 8 IU/kg, time 120 min
  % blood glucose decrease: 2.05%
Blood glucose levels [2]; 8 IU/kg, time 180 min
  % blood glucose decrease: −26.58%
Blood glucose levels [2]; 12 IU/kg
  AUC of % blood glucose decrease: 32.2
  Cmax of % blood glucose decrease: 6.48%
  Tmax of % blood glucose decrease: 5
Blood glucose levels [2]; 12 IU/kg, time 0 min
  % blood glucose decrease: 0%
Blood glucose levels [2]; 12 IU/kg, time 5 min
  % blood glucose decrease: 6.48%
Blood glucose levels [2]; 12 IU/kg, time 10 min
  % blood glucose decrease: −0.08%
Blood glucose levels [2]; 12 IU/kg, time 15 min
  % blood glucose decrease: −4.4%
Blood glucose levels [2]; 12 IU/kg, time 30 min
  % blood glucose decrease: −8.32%
Blood glucose levels [2]; 12 IU/kg, time 60 min
  % blood glucose decrease: −13.98%
Blood glucose levels [2]; 12 IU/kg, time 120 min
  % blood glucose decrease: −30.7%
Blood glucose levels [2]; 12 IU/kg, time 180 min
  % blood glucose decrease: −40.55%
[3]
  Tmax: 5 min
Blood glucose levels [4]
  AUC, decrease in the % of blood glucose levels: 275.5
  Tmax, decrease in the % of blood glucose levels: 30 min
